# Measured values reported in US10047086B2, “Imidazopyridines and imidazopyrazines as LSD1 inhibitors” (Incyte Corporation, priority 2014, dated 2018).
# Molecular target: LSD-1 enzyme (Homo sapiens (Human), UniProt O60341)
# Assay: LANCE LSD1/KDM1A demethylase assay (LSD1 histone demethylase biochemical assay)
# Conditions: 1 nM LSD-1 enzyme, 1 hour preincubation at 25° C., 0.4 μM Biotin-labeled Histone H3 peptide substrate
# Procedure: LSD1 Histone Demethylase Biochemical Assay
# LANCE LSD1/KDM1A demethylase assay-10 μL of 1 nM LSD-1 enzyme (ENZO BML-SE544-0050) in the assay buffer (50 mM Tris, pH 7.5, 0.01% Tween-20, 25 mM NaCl, 5 mM DTT) were preincubated for 1 hour at 25° C. with 0.8 μL compound/DMSO dotted in black 384 well polystyrene plates. […] Reactions were stopped by addition of 10 μL 1× LANCE Detection Buffer (PerkinElmer CR97-100) supplemented with 1.5 nM Eu-anti-unmodified H3K4 Antibody (PerkinElmer TRF0404), and 225 nM LANCE Ultra Streptavidin (PerkinElmer TRF102) along with 0.9 mM Tranylcypromine-HCl (Millipore 616431). After stopping the reactions plates were incubated for 30 minutes and read on a PHERAstar FS plate reader (BMG Labtech).
row,Compound,IC50
1,"CN(C)C1CCN(c2nc(-c3ccc(C#N)cc3)c(-c3ccc4c(c3)CC(O)C4)n3cncc23)CC1 (racemic) [Example 136, 4-[8-[4-(dimethylamino)piperidin-1-yl]-5-(2-hydroxy-2,3-dihydro-1H-inden-5-yl)imidazo[1,5-a]pyrazin-6-yl]benzonitrile]",≤ 50 nM
2,"Cc1ccc(-c2c(-c3ccc(C#N)cc3)cc(OC[C@@H]3CCNC3)c3cncn23)cc1 [Example 1, 4-{5-(4-methylphenyl)-8-[(3R)-pyrrolidin-3-ylmethoxy]imidazo[1,5-a]pyridin-6-yl}benzonitrile]",≤ 50 nM
3,"Cc1ccc(-c2c(-c3ccc([N+](=O)[O-])cc3)cc(OC[C@@H]3CCNC3)c3cncn23)cc1 [Example 3, 5-(4-methylphenyl)-6-(4-nitrophenyl)-8-[(3R)-pyrrolidin-3-ylmethoxy]imidazo[1,5-a]pyridine]",≤ 50 nM
4,"Cc1ccc(-c2c(-c3ccc(C#N)c(F)c3)cc(OC[C@@H]3CCNC3)c3cncn23)cc1 [Example 4, 2-fluoro-4-{5-(4-methylphenyl)-8-[(3R)-pyrrolidin-3-ylmethoxy]imidazo[1,5-a]pyridin-6-yl}benzonitrile]",≤ 50 nM
5,"Cc1ccc(-c2c(-c3ccc(C#N)cc3F)cc(OC[C@@H]3CCNC3)c3cncn23)cc1 [Example 5, 3-fluoro-4-{5-(4-methylphenyl)-8-[(3R)-pyrrolidin-3-ylmethoxy]imidazo[1,5-a]pyridin-6-yl}benzonitrile]",≤ 50 nM
6,"Cc1ccc(-c2c(-c3ccc(C#N)cc3)cc(OC[C@@H]3CCNC3)c3cncn23)c(F)c1 [Example 8, 4-{5-(2-fluoro-4-methylphenyl)-8-[(3R)-pyrrolidin-3-ylmethoxy]imidazo[1,5-a]pyridin-6-yl}benzonitrile]",≤ 50 nM
7,"CCC1CC=C(c2c(-c3ccc(C#N)cc3)cc(OC[C@@H]3CCNC3)c3cncn23)CC1 (stereo partly drawn) [Example 9, 4-{5-(4-ethylcyclohex-1-en-1-yl)-8-[(3R)-pyrrolidin-3-ylmethoxy]imidazol[1,5-a]pyridin-6-yl}benzonitrile]",≤ 50 nM
8,"Cn1ncc2cc(-c3c(-c4ccc(C#N)cc4)cc(OC[C@@H]4CCNC4)c4cncn34)ccc21 [Example 11, 4-{5-(1-methyl-1H-indazol-5-yl)-8-[(3R)-pyrrolidin-3-ylmethoxy]imidazo[1,5-a]pyridin-6-yl}benzonitrile]",≤ 50 nM
9,"CN1C(=O)Cc2cc(-c3c(-c4ccc(C#N)cc4)cc(OC[C@@H]4CCNC4)c4cncn34)ccc21 [Example 12, 4-{5-(1-methyl-2-oxo-2,3-dihydro-1H-indol-5-yl)-8-[(3R)-pyrrolidin-3-ylmethoxy]imidazo-[1,5-a]pyridin-6-yl}benzonitrile]",≤ 50 nM
10,"CN1CCOc2cc(-c3c(-c4ccc(C#N)cc4)cc(OC[C@@H]4CCNC4)c4cncn34)ccc21 [Example 14, 4-{5-(4-methyl-3,4-dihydro-2H-1,4-benzoxazin-7-yl)-8-[(3R)-pyrrolidin-3-ylmethoxy]imidazo[1,5-a]pyridin-6-yl}benzonitrile]",≤ 50 nM
11,"CN1CCOc2ccc(-c3c(-c4ccc(C#N)cc4)cc(OC[C@@H]4CCNC4)c4cncn34)cc21 [Example 15, 4-{5-(4-methyl-3,4-dihydro-2H-1,4-benzoxazin-6-yl)-8-[(3R)-pyrrolidin-3-ylmethoxy]imidazo[1,5-a]pyridin-6-yl}benzonitrile]",≤ 50 nM
12,"N#Cc1ccc(-c2cc(OC[C@@H]3CCNC3)c3cncn3c2-c2ccc3c(c2)OCCO3)cc1 [Example 16, 4-{5-(2,3-dihydro-1,4-benzodioxin-6-yl)-8-[(3R)-pyrrolidin-3-ylmethoxy]imidazo[1,5-a]pyridin-6-yl}benzonitrile]",≤ 50 nM
13,"N#Cc1ccc(-c2cc(OC[C@@H]3CCNC3)c3cncn3c2-c2ccc(CCN3CCOCC3)cc2)cc1 [Example 18, 4-{5-[4-(2-morpholin-4-ylethyl)phenyl]-8-[(3R)-pyrrolidin-3-ylmethoxy]imidazo[1,5-a]pyridin-6-yl}benzonitrile]",≤ 50 nM
14,"CN1CCN(Cc2ccc(-c3c(-c4ccc(C#N)cc4)cc(OC[C@@H]4CCNC4)c4cncn34)cc2)CC1 [Example 19, 4-{5-{4-[(4-methylpiperazin-1-yl)methyl]phenyl}-8-[(3R)-pyrrolidin-3-ylmethoxy]imidazo-[1,5-a]pyridin-6-yl}benzonitrile]",≤ 50 nM
15,"Cc1ccc(-c2c(-c3ccc(C#N)cc3)cc(OC[C@@H]3CCN(C)C3)c3cncn23)cc1 [Example 20, 4-(5-(4-methylphenyl)-8-{[(3R)-1-methylpyrrolidin-3-yl]methoxy}imidazo[1,5-a]pyridin-6-yl)benzonitrile]",≤ 50 nM
16,"CN1CCC[C@@H](COc2nc(-c3ccc(C#N)cc3)c(-c3ccc4c(cnn4C)c3)n3cncc23)C1 [Example 23, 4-(5-(1-methyl-1H-indazol-5-yl)-8-{[(3R)-1-methylpiperidin-3-yl]methoxy}imidazo[1,5-a]pyrazin-6-yl)benzonitrile]",≤ 50 nM
17,"CN1CCC[C@@H](COc2nc(-c3ccc(C#N)cc3)c(-c3ccc4c(c3)ncn4C)n3cncc23)C1 [Example 28, 4-(5-(1-methyl-1H-benzimidazol-5-yl)-8-{[(3R)-1-methylpiperidin-3-yl]methoxy}imidazo[1,5-a]pyrazin-6-yl)benzonitrile]",≤ 50 nM
18,"CN1CCC[C@@H](COc2nc(-c3ccc(C#N)cc3)c(-c3cnc4c(c3)OCCN4C)n3cncc23)C1 [Example 29, 4-(5-(4-methyl-3,4-dihydro-2H-pyrido[3,2-b][1,4]oxazin-7-yl)-8-{[(3R)-1-methylpiperidin-3-yl]methoxy}imidazo[1,5-a]pyrazin-6-yl)benzonitrile]",≤ 50 nM
19,"CN1CCC[C@@H](COc2nc(-c3ccc(C#N)cc3)c(-c3cc4oc(=O)n(C)c4cc3F)n3cncc23)C1 [Example 30, 4-(5-(5-fluoro-3-methyl-2-oxo-2,3-dihydro-1,3-benzoxazol-6-yl)-8-{[(3R)-1-methylpiperidin-3-yl]methoxy}imidazo[1,5-a]pyrazin-6-yl)benzonitrile]",≤ 50 nM
20,"CN1CCC[C@@H](COc2nc(-c3ccc(C#N)cc3)c(-c3ccc4scnc4c3)n3cncc23)C1 [Example 34, (R)-4-(5-(benzo[d]thiazol-5-yl)-8-((1-methylpiperidin-3-yl)methoxy)imidazo[1,5-a]pyrazin-6-yl)benzonitrile]",≤ 50 nM
21,"Cc1nc2cc(-c3c(-c4ccc(C#N)cc4)nc(OC[C@@H]4CCCN(C)C4)c4cncn34)ccc2s1 [Example 35, 4-(5-(2-methyl-1,3-benzothiazol-5-yl)-8-{[(3R)-1-methylpiperidin-3-yl]methoxy}imidazo[1,5-a]pyrazin-6-yl)benzonitrile]",≤ 50 nM
22,"CN1CCC[C@@H](COc2nc(-c3ccc(C#N)c(F)c3)c(-c3cnc4c(cnn4C)c3)n3cncc23)C1 [Example 36, 2-fluoro-4-[8-{[(3R)-1-methylpiperidin-3-yl]methoxy}-5-(1-methyl-1H-1-pyrazolo[3,4-b]pyridin-5-yl)imidazo[1,5-a]pyrazin-6-yl]benzonitrile]",≤ 50 nM
23,"Cn1ncc2cc(-c3c(-c4ccc(C#N)cc4)nc(OC[C@@H]4CCCN(CCO)C4)c4cncn34)cnc21 [Example 37, 4-[8-{[(3R)-1-(2-hydroxyethyl)piperidin-3-yl]methoxy}-5-(1-methyl-1H-1-pyrazolo[3,4-b]pyridin-5-yl)imidazo[1,5-a]pyrazin-6-yl]benzonitrile]",≤ 50 nM
24,"Cn1ncc2cc(-c3c(-c4ccc(C#N)cc4)nc(OC[C@@H]4CCCN(CCC#N)C4)c4cncn34)cnc21 [Example 38, 4-[8-{[(3R)-1-(2-cyanoethyl)piperidin-3-yl]methoxy}-5-(1-methyl-1H-1-pyrazolo[3,4-b]pyridin-5-yl)imidazo[1,5-a]pyrazin-6-yl]benzonitrile]",≤ 50 nM
25,"COCCN1CCC[C@@H](COc2nc(-c3ccc(C#N)cc3)c(-c3cnc4c(cnn4C)c3)n3cncc23)C1 [Example 40, 4-[8-{[(3R)-1-(2-methoxyethyl)piperidin-3-yl]methoxy}-5-(1-methyl-1H-pyrazolo[3,4-b]pyridin-5-yl)imidazo[1,5-a]pyrazin-6-yl]benzonitrile]",≤ 50 nM
26,"Cc1ccc(-c2c(-c3ccc(C#N)cc3)nc(OC[C@@H]3CCCN(C)C3)c3cncn23)cc1CO [Example 42, 4-(5-[3-(hydroxymethyl)-4-methylphenyl]-8-{[(3R)-1-methylpiperidin-3-yl]methoxy}imidazo[1,5-a]pyrazin-6-yl)benzonitrile]",≤ 50 nM
27,"COc1ncc(-c2c(-c3ccc(C#N)cc3)nc(OC[C@@H]3CCCN(C)C3)c3cncn23)cc1F [Example 43, 4-(5-(5-fluoro-6-methoxypyridin-3-yl)-8-{[(3R)-1-methylpiperidin-3-yl]methoxy}imidazo[1,5-a]pyrazin-6-yl)benzonitrile]",≤ 50 nM
28,"Cc1cc(-c2c(-c3ccc(C#N)cc3)nc(OC[C@@H]3CCCN(C)C3)c3cncn23)cc(F)c1CO [Example 44, 4-(5-[3-fluoro-4-(hydroxymethyl)-5-methylphenyl]-8-{[(3R)-1-methylpiperidin-3-yl]methoxy}imidazo[1,5-a]pyrazin-6-yl)benzonitrile]",≤ 50 nM
29,"Cc1cc(-c2c(-c3ccc(C#N)cc3)nc(OC[C@@H]3CCCN(C)C3)c3cncn23)ccc1CO [Example 45, 4-(5-[4-(hydroxymethyl)-3-methylphenyl]-8-{[(3R)-1-methylpiperidin-3-yl]methoxy}imidazo[1,5-a]pyrazin-6-yl)benzonitrile]",≤ 50 nM
30,"CN1CCC[C@@H](COc2nc(-c3ccc(C#N)cc3)c(-c3cc(F)c(CO)c(F)c3)n3cncc23)C1 [Example 47, 4-(5-[3,5-difluoro-4-(hydroxymethyl)phenyl]-8-{[(3R)-1-methylpiperidin-3-yl]methoxy}imidazo[1,5-a]pyrazin-6-yl)benzonitrile]",≤ 50 nM
